These results are taken from patent US20110136766A1, “AURORA KINASE INHIBITORS” (Vitae Pharmaceuticals, Inc., priority 2008, published 2011).

One test relates to Colo205. Put plainly: CellTiter-Glo cell viability assay, Colo205. The test is classed as cell-based. Particulars: Homo sapiens, COLO 205; Colorectal cancer; 72 hrs; 50% growth inhibition relative to control; read-out: Colo205 IC50. The source says: (§1) The CellTiter-Glo® Luminescent Cell Viability Assay is a homogeneous method of determining the number of viable cells in culture based on quantitation of the ATP present, which signals the presence of metabolically active cells. The homogeneous assay procedure involves addition of a single reagent directly to cells cultured in serum-supplemented medium. The homogeneous format results in cell lysis and generation of a luminescent signal proportional to the amount of ATP present. The CellTiter-Glo® Assay relies on the properties of a proprietary thermostable luciferase (Ultra-Glo. Recombinant Luciferase), which generates a stable glow-type Luminescent signal. The half-life of the luminescent signal resulting from this reaction is greater than five hours. This extended half-life eliminates the need for reagent injectors and provides flexibility for continuous or batch-mode processing of multiple plates. The unique homogeneous format reduces pipetting errors that may be introduced during the multiple steps required by other ATP-measurement methods.
(§2) 96 Well cell culture plates were seeded with 10^3 mammalian cells (Colo205, HL-60, SW620, HCT116, MCF-7 and MV-411) in 100 μl culture medium. The cells were incubated overnight prior to initiating the assay. Control wells were prepared on a plate containing medium only to obtain a value for background luminescence.
(§3) Compounds to be tested were added to experimental wells and incubated for 72 hrs (Colo205, HL-60, MV-411), 168 hrs (HCT116, SW620) or 240 hrs (MCF-7). Wells were also set up to as vehicle controls with the addition of 0.1% DMSO. At the end of the incubation period, the plates were equilibrated to room temperature for approximately 30 minutes.
(§4) Lyophilized CellTiter-Glo® Substrate and the CellTiter-Glo® Buffer were warmed to room temperature. The CellTiter-Glo® Buffer was mixed with the CellTiter-Glo® Substrate to reconstitute the lyophilized enzyme/substrate mixture. This forms the CellTiter-Glo® Reagent. The contents were mixed by gently vortexing, swirling or by inverting the contents to obtain a homogeneous solution. 100 μl of CellTiter-Glo® Reagent was added to the cell culture medium present in each well. The contents were mixed for 2 minutes on an orbital shaker to induce cell lysis. The plates were allowed to incubate at room temperature for 10 minutes to stabilize luminescent signal. The contents of the 96 well cell culture plate were then transferred to a white 96 well Optiplate (Perkin Elmer). The luminescence was recorded on Wallac 1420 VICTOR^2 V Multilabel Platereader (An integration time of 0.25-1 second per well).
(§5) 10 mM DMSO stock Compounds were serially diluted threefold in DMSO. Subsequent dilutions made into cell culture media prior to addition to cells to maintain the DMSO concentration at or below 0.1% to avoid cell toxicity.
(§6) The IC50s in Table 2 are the concentration at which 50% growth inhibition relative to control occurs.
On the technique in general: In ATP-based viability assays light output follows the ATP content of the culture.

The target in test [1] is T1, full-length human Aurora B/INCENP complex (Homo sapiens, UniProt Q96GD4).
T1 construct: the full-length human Aurora B (N-terminal GST fusion); GST (N); purchased Carna BioSciences, Japan
T1 sequence (Q96GD4 whole entry, the tested form may be a part): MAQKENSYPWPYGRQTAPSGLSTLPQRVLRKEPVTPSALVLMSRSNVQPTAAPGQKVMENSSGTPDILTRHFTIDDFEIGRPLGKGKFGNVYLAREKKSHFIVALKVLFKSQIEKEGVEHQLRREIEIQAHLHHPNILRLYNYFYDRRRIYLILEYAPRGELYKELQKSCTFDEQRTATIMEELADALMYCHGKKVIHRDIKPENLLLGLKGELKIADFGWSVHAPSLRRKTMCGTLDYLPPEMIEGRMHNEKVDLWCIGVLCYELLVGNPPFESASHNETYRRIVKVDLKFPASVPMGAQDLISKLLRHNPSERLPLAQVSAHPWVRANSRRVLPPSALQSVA
T1 sequence (Q9NQS7 803-918 partner limits assumed): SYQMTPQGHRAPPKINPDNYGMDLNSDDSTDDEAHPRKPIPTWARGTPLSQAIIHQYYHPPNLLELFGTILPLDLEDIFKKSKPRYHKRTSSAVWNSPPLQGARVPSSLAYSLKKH
Description: Aurora B phosphocellulose filter binding kinase activity assay. The test is classed as biochemical. Particulars: 1.5 nM Aurora B/INCENP complex, 10 μM ATP, 50 μM Kemptide, 45 min; read-out: Aur-B IC50. As to the method:
(§7) Kinase activity of Aurora kinases was measured by phosphocellulose filter binding assay. The full-length human Aurora A carrying His6 tag at the N-terminus (Invitrogen, Carlsbad, Calif.) and the full-length human Aurora B (N-terminal GST fusion) co-expressed and co-purified with the His6-INCENP INBOX, aminoacids 803-918 (Carna BioSciences, Japan) were used as the enzyme in the assays. Tested compounds were diluted in DMSO and pre-incubated with the enzyme and ATP/Mg^2+ mixture for at least 10 minutes. The reaction was started by addition of the Kemptide peptide substrate (LRRASLG) and allowed to proceed for 45 min at room temperature. Each reaction in a final volume of 40 μl contained 50 μM Kemptide, 10 μM [γ-^33P]ATP (1 Ci/mmol) and either 11 nM Aurora A or 1.5 nM Aurora B/INCENP complex in the buffer containing 10 mM MgCl2, 5% DMSO, 20 mM MOPS, pH 7.2, 25 mM β-glycerol phosphate, 5 mM EGTA, 1 mM Na3VO4 and either 0.1 mg/ml of BSA and 1 mM DTT for Aurora A or 0.01% Triton-X100 and 2 mM DTT for Aurora B. The reaction was stopped with 25 μl of 5% H3PO4, and 45 μl of the mixture was transferred into a MultiScreen-PH filterplate (Millipore) pre-washed with 0.85% H3PO4. The filterplate was washed 4 times with 200 μl of 0.85% H3PO4 on a vacuum manifold. Scintillation fluid (50 μl of Ultima Gold™ LLT, PerkinElmer, Waltham, Mass.) was added to each well, and after 1-hr incubation at room temperature the plates were counted on MicroBeta (PerkinElmer, Waltham, Mass.) plate reader. […] Percent inhibition values were calculated based on the counts of the positive and negative controls, and these values were regressed against inhibitor concentration and fit into a four parameter model. From this fit the IC50 values (the inhibitor concentration at which 50% inhibition occurs) were derived as the inflection point on the semi-logarithm inhibition curve.

For the next test, the system named is MV-411. Description: CellTiter-Glo cell viability assay, MV-411. Particulars: Homo sapiens, MV4-11; Leukemia; 72 hrs; 50% growth inhibition relative to control; read-out: MV-411 IC50. The test is classed as cell-based.
Source text: as §1, §2, §3, §4, §5, §6

For a further test, the system named is HL-60. Description: CellTiter-Glo cell viability assay, HL-60. Type of test: cell-based. Particulars: Homo sapiens, HL-60; Leukemia; 72 hrs; 50% growth inhibition relative to control; read-out: HL-60 IC50.
Source text: as §1, §2, §3, §4, §5, §6

The test system of a further test is HCT116. Put plainly: CellTiter-Glo cell viability assay, HCT116. Particulars: Homo sapiens, HCT-116; Colorectal cancer; 168 hrs; 50% growth inhibition relative to control; read-out: HCT116 IC50. Type of test: cell-based.
Source text: as §1, §2, §3, §4, §5, §6

The next test concerns MCF-7. Description: CellTiter-Glo cell viability assay, MCF-7. Type of test: cell-based. The conditions noted are these: Homo sapiens, MCF7; Breast Cancer; 240 hrs; 50% growth inhibition relative to control; read-out: MCF-7 IC50.
Source text: as §1, §2, §3, §4, §5, §6

The target in test [2] is T2, full-length human Aurora A (Homo sapiens, UniProt O14965).
T2 construct: The full-length human Aurora A carrying His6 tag at the N-terminus; His6 (N); purchased Invitrogen, Carlsbad, Calif
T2 sequence (O14965 1-403): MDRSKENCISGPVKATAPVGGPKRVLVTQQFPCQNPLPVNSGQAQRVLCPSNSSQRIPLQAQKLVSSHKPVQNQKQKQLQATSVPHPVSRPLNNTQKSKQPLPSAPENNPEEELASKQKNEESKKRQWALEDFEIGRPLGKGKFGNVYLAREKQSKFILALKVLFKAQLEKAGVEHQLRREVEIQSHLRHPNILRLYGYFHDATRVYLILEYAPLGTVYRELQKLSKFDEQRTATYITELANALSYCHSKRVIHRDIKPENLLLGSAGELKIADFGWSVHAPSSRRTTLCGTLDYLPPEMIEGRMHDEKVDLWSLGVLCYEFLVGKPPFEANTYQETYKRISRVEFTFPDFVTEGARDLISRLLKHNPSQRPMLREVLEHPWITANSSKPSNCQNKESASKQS
Put plainly: Aurora A phosphocellulose filter binding kinase activity assay. Type of test: biochemical. Particulars: 11 nM Aurora A, 10 μM ATP, 50 μM Kemptide, 45 min; read-out: Aur-A IC50. As to the method:
as §7

Another test concerns SW620. Description: CellTiter-Glo cell viability assay, SW620. Particulars: Homo sapiens, SW-620; Colorectal cancer; 168 hrs; 50% growth inhibition relative to control; read-out: SW620 IC50. The test is classed as cell-based.
Source text: as §1, §2, §3, §4, §5, §6

As to `O=C(Cc1cc(Nc2ncnc3cc(-c4ccc(S(=O)(=O)N5CC[C@H](F)C5)cc4)ccc23)n[nH]1)Nc1cccc(F)c1` [Compound 5, (S)-N-(3-fluorophenyl)-2-(3-(7-(4-(3-fluoropyrrolidin-1-ylsulfonyl)phenyl)quinazolin-4-ylamino)-1H-pyrazol-5-yl)acetamide], the IC50 (commonly the midpoint of a concentration-inhibition curve) was 3.86 nM in the test on Colo205; 0.56 nM in test [1]; 6.4 nM in the test on MV-411; 1.21 nM in the test with HL-60; 1.9 nM with HCT116; 11.4 nM in the test on MCF-7. Besides, the IC50 was determined as 7.1 nM in test [2] and 2.17 nM in the test on SW620.

Regarding `O=C(Cc1cc(Nc2ncnc3cc(-c4ccc(C(=O)N5CCNCC5)cc4)ccc23)n[nH]1)Nc1cccc(F)c1` [Compound 4, N-(3-fluorophenyl)-2-(3-(7-(4-(piperazine-1-carbonyl)phenyl)quinazolin-4-ylamino)-1H-pyrazol-5-yl)acetamide], the IC50 in the test with Colo205 stood at 2.11 nM; in test [1], 0.71 nM; in the test with MV-411, 6.05 nM; in the test on HL-60, 1.32 nM; in the test on HCT116 it was 5.66 nM; in the test with MCF-7, 7.7 nM. In addition, the results for the IC50 (in test [2]; in the test on SW620) were 3.77 nM and 7.81 nM, respectively.

For the compound `O=C(Cc1cc(Nc2ncnc3cc(-c4ccc(C(=O)N5CCN(CCO)CC5)cc4)ccc23)n[nH]1)Nc1cccc(F)c1` [Compound 1, N-(3-fluorophenyl)-2-(3-(7-(4-(4-(2-hydroxyethyl)piperazine-1-carbonyl)phenyl)quinazolin-4-ylamino)-1H-pyrazol-5-yl)acetamide], the IC50 with Colo205 amounted to 1.82 nM; in test [1] it was 0.48 nM; in the test on MV-411, 5.75 nM; with HL-60, 1.32 nM; with HCT116 it was 5.32 nM; with MCF-7, 16.9 nM. Moreover, the IC50 in test [2] was determined as 1.93 nM; in the test on SW620, 12 nM.

Regarding `O=C(Cc1cc(Nc2ncnc3cc(-c4ccc(S(=O)(=O)N5CCCC5)cc4)ccc23)n[nH]1)Nc1cccc(F)c1` [Compound 3, N-(3-fluorophenyl)-2-(3-(7-(4-(pyrrolidin-1-ylsulfonyl)phenyl)quinazolin-4-ylamino)-1H-pyrazol-5-yl)acetamide], the IC50 turned out to be 2.26 nM in the test on Colo205; 0.47 nM in test [1]; 5.9 nM with MV-411; 1.08 nM with HL-60; 4.58 nM with HCT116; 5.62 nM in the test on MCF-7. The IC50 in test [2] worked out at 6.04 nM; with SW620, 2.15 nM.

On to `CC(=O)O[C@H]1C(=O)[C@@]2(C)[C@H]([C@H](OC(=O)c3ccccc3)[C@]3(O)C[C@H](OC(=O)[C@H](O)[C@@H](NC(=O)c4ccccc4)c4ccccc4)C(C)=C1C3(C)C)[C@]1(OC(C)=O)CO[C@@H]1C[C@@H]2O` [Taxol, reference compound], for which the IC50 in the test on Colo205 came to 2.54 nM; in the test with MV-411 it was 6.2 nM; in the test on HL-60 it was 2.16 nM; in the test with HCT116 it was 2.04 nM; in the test on MCF-7, 0.58 nM; with SW620 it was 4.91 nM.

Consider `CN1CCN(C(=O)c2ccc(-c3ccc4c(Nc5cc(CC(=O)Nc6cccc(F)c6)[nH]n5)ncnc4c3)cc2)CC1` [Compound 2, N-(3-fluorophenyl)-2-(3-(7-(4-(4-methylpiperazine-1-carbonyl)phenyl)quinazolin-4-ylamino)-1H-pyrazol-5-yl)acetamide], for which the IC50 in the test with Colo205 came out at 3.98 nM; in test [1], 0.86 nM; with MV-411, 5.2 nM; in the test on HL-60 it was 1.8 nM; with HCT116, 3.65 nM; with MCF-7, 8.46 nM. Moreover, the 50% inhibitory concentration (IC50) in test [2] turned out to be 5.07 nM; with SW620, 6.3 nM.

With `O=C(Cc1cc(Nc2ncnc3cc(-c4ccc(S(=O)(=O)N5CC[C@@H](F)C5)cc4)ccc23)n[nH]1)Nc1cccc(F)c1` [Compound 6, (R)-N-(3-fluorophenyl)-2-(3-(7-(4-(3-fluoropyrrolidin-1-ylsulfonyl)phenyl)quinazolin-4-ylamino)-1H-pyrazol-5-yl)acetamide], the IC50 with Colo205 was found to be 3.9 nM; in test [1], 0.63 nM; in the test with MV-411, 5.79 nM; in the test with HL-60, 2.26 nM; with HCT116, 1.9 nM; with MCF-7, 7.8 nM. In addition, the IC50 in test [2] came to 6.29 nM; in the test with SW620, 2.4 nM.
